Test results as given in patent publication US5010074A, “Novel benzazepine derivatives” (Novo Nordisk A/S, priority 1988, dated 1991).
Read-outs that look alike come from different tables or passages of the source.

How the values were obtained:
[1] = target: T1, dopamine D1 receptor (Rattus norvegicus, UniProt P18901); test: binding to dopamine D1 receptor in homogenates from rat striatum
T1 construct: homogenates from rat striatum; from tissue; host or cells: rat striatum homogenate
Source text: Ki is the affinity of tested compounds for the dopamine D1 receptor.

[2] = antagonism of methylphenidate-induced stereotyped gnawing in mice; settings: mouse, in vivo
Source text: (§1) Following the method of Pedersen, V. and Christensen, A.V.: "Antagonism of methylphenidate-induced stereotyped gnawing in mice", Acta Pharmacol. et Toxicol. 31: 488-496, 1972, antagonism of dopamine-dependent, methyl-phenidate-induced gnawing behaviour of mice, was used to assess the effects of the present D-1 antagonists. Further, the ratio of ED50 values obtained using i.v. administration and oral administration, respectively, was taken as an index of the bioavailability of the test drugs.

[3] = system: methyl-phenidate-induced gnawing behaviour of mice; test: as above; settings: Mus musculus
Source text: as §1

[4] = in words; Life Sci. 34 (1984) 1529; cited from earlier work
[5] = system: D1 dopamine; settings: in words; Eur.J.Pharmacol. 91 (1983) 153; cited from earlier work
[6] = in vivo; set-up: species or system mongrel dogs; settings: dog, po
Protocol: As already mentioned, the benzazepines of the general formula given in Table II with X representing halogen have a low oral bioavailability. […] Some test results are stated in the following.
The benzazepines are administered orally to dogs and subsequently samples of their blood plasma are analysed for the compound by a specific HPLC-method. The area under the curve showing the oral plasma concentration versus time is calculated. This area is designated […].
The absolute oral bioavailability, F, is calculated as the ratio between the area representing the oral dose and the area for the intravenous dose according to the formula [formula]

[7] = Table I, rat striatum homogenates, (+) enantiomere or racemic mixtures, read-out: Ki Dopamine D1 receptor
[8] = Table II, unit inferred, read-out: Ki

T1 sequence (P18901 whole entry): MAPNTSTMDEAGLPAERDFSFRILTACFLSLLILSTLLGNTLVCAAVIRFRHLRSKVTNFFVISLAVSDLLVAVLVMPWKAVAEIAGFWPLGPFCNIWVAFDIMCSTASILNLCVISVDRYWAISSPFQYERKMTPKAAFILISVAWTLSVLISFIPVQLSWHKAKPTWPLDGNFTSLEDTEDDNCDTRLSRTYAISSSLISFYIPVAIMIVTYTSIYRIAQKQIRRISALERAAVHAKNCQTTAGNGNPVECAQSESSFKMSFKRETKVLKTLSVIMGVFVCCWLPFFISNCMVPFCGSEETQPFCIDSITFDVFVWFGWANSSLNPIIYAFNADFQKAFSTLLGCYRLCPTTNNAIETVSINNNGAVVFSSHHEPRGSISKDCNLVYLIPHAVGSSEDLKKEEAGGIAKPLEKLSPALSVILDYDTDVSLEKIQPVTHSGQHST

SMILES | Ki [1, 7] [nM] | Ki [1, 8] [nM] | selectivity ratio [2] | ED50 ([3]; iv, read-out: ED50 i.v.) [mg/kg] | ED50 ([3]; po, read-out: ED50 p.o.) [mg/kg] | further results
CN1CCc2cc([N+](=O)[O-])c(O)cc2[C@@H](c2ccccc2)C1 [Example 4, (R)-7-hydroxy-3-methyl-8-nitro-5-phenyl-2,3,4,5-tetrahydro-1H-3-benzazepine] | 13 | 13 | 2.2 | 5.4 | 11.9 | –
CN1CCc2cc([N+](=O)[O-])c(O)cc2C(c2ccc3c(c2)CCC3)C1 (stereo not shown) [Example 6, 7-hydroxy-5-(5-indanyl)-3-methyl-8-nitro-2,3,4,5-tetrahydro-1H-3-benzazepine] | 88 | – | – | – | – | –
CN1CCc2cc([N+](=O)[O-])c(O)cc2[C@@H]2c3ccccc3CC[C@H]21 (relative stereo) [Example 7, trans-[6,7,7a,8,9,13b]-hexahydro-2-hydroxy-7-methyl-3-nitro-5H-benzo[d]naphto[2,1-b]azepine] | 169 | – | – | – | – | –
CN1CCc2cc([N+](=O)[O-])c(O)cc2C(c2ccccc2F)C1 (stereo not shown) [Example 1, 5-(2-fluorophenyl)-7-hydroxy-3-methyl-8-nitro-2,3,4,5-tetrahydro-1H-3-benzazepine] | 42 | – | – | – | – | –
CN1CCc2cc(Cl)c(O)cc2[C@@H](c2ccccc2)C1 [SCH 23390, (R)-8-chloro-7-hydroxy-2,3,4,5-tetrahydro-3-methyl-5-phenyl-1H-3-benzazepine] | – | – | – | 0.017 | 6.5 | bioavailability after oral administration [4]: poor bioavailability after oral administration; duration of action [4]: short duration of action; D1 dopamine antagonism [5]: selective D1 dopamine antagonist
CN1CCc2cc(Cl)c(O)cc2C(c2cccc3c2OCC3)C1 (stereo not shown) [8-chloro-7-hydroxy-3-methyl-5-(2,3-dihydrobenzofuran-7-yl)-2,3,4,5-tetrahydro-1H-3-benzazepine, reference compound] | – | 0.2 | 75 | 0.06 | 4.5 | bioavailability [6]: 5.5%
Cc1ccccc1C1CN(C)CCc2cc([N+](=O)[O-])c(O)cc21 (stereo not shown) [Example 3, 7-hydroxy-3-methyl-8-nitro-5(2-methyl-phenyl)-2,3,4 5-tetrahydro-1H-3-benzazepine] | 28 | – | – | – | – | –
CN1CCc2cc([N+](=O)[O-])c(O)cc2C(c2cccc3c2OCC3)C1 (single isomer, unassigned; (+)) [Example 5, (+)-5-(2,3-dihydrobenzofuran-7-yl)-7-hydroxy-3-methyl-8-nitro-2,3,4,5-tetrahydro-1H-3-benzazepine] | 11 | 4.6 | 17.3 | 0.11 | 1.9 | bioavailability [6]: 65%
